Here are results for one compound from US20230414634A1, “METHODS FOR TREATING CHOLESTATIC PRURITUS” (GlaxoSmithKline Intellectual Property (No.2) Limited, priority 2020, published 2023).

Each structure is given as a SMILES string.

For data set [1], the system named is TSBA, C4, FGF-19, serum autotaxin and LDL cholesterol. Description: GLIMMER Phase 2b study: pharmacodynamic serum biomarkers. In kind it is in vivo, human. The text has this: The following biomarkers are useful in clinical investigations relating to the treatment of pruritus, particularly cholestatic pruritus:
Serum 7-α-hydroxy-4-cholesten-3-one (C4)
C4 is an intermediate in the biochemical synthesis of bile acids from cholesterol. C4 concentrations reflect the activity of the bile acid synthetic pathway.
FGF-19 a protein which functions as a hormone, regulating bile acid synthesis, with effects on glucose and lipid metabolism.
Autotaxin is the enzyme that produces lysophosphatidic acid (LPA) which is found to correlate with itch intensity.
LDL one of the five major groups of lipoprotein which transport all fat molecules around the body in the extracellular water.
TSBA are metabolized in the liver and can serve as a marker for normal liver function.
Measurement of Level of Pharmacodynamic Biomarkers
Total serum bile acids (TSBA) (FIG. 10)
Serum 7-α-hydroxy-4-cholesten-3-one (C4) (FIG. 2)
Serum fibroblast growth factor-19 (FGF-19) (FIG. 7)
Serum LDL (low-density lipoprotein) cholesterol (FIG. 9)
Further analysis of biomarker parameters provided clear indication of pharmacological action with decreases in total serum bile acids (TSBA), increases in the serum bile acid precursor C4 (7-a-hydroxy-4-cholesten-3-one) and corresponding mean decreases in fibroblast growth factor 19 (FGF-19), a hormone that regulates bile acid synthesis. […] Reductions in FGF-19 and autotaxin were also observed across most treatment groups during the main study period (excluding placebo for FGF-19 and linerixibat 20 mg QD for autotaxin) (FIG. 7, FIG. 8).

Data set [2] has as its system PBC patients with pruritus. As to the kind of experiment: Phase 2a crossover clinical study BAT117213 (NCT01899703) of GSK672 versus placebo. The format is in vivo, human. The procedure: A Phase 2a clinical study (NCT01899703; GSK study BAT117213) was carried out to investigate the safety, tolerability, and effect of repeat doses of GSK672 administration in patients with cholestatic pruritus in Primary Biliary Cholangitis (PBC). The results of this study have been summarized and published on clintrials.gov (NCT01899703).
A phase 2 double-blind, randomised, placebo controlled, crossover trial in PBC patients with pruritus was conducted at two specialist PBC centres in the United Kingdom between March 2014 and November 2015. Subjects received oral 45 to 90 mg GSK672 (45 mg BID for Day 1 to 3 and 90 mg BID for Days 4 to 14) and placebo twice daily for 14 days, in a crossover sequence.
The three different itch rating scales were employed: 10-point NRS, 5D Itch Scale and PBC-40.
The primary end point was safety (measured by clinical and laboratory assessments and adverse events (AEs)) and tolerability. Secondary end points were: i) changes in pruritus scores from baseline measured using a 0 to 10 numerical rating scale (NRS) completed twice daily and PBC-40 itch domain scores and 5-D itch scale and ii) changes in serum levels of total bile acids and C4. Serum levels of ATX activity and FGF-19 were measured at baseline and at the end of each treatment period.
An analysis was carried out as to the effect of 90 mg BID. No analysis was carried out as to the effect of 45 mg BID as this dose was administered for Days 1 to 3 in order to ease patients onto the higher 90 mg BID dose.

Regarding `CCCC[C@]1(CC)CS(=O)(=O)c2cc(CNC(CC(=O)O)CC(=O)O)c(OC)cc2[C@@H](c2ccccc2)N1` [linerixibat], in data set [1] (40 mg BID), the “FGF-19 mean change from baseline compared with placebo (ANCOVA)” value is “statistically significant reductions”. In data set [1] (40 mg BID and 90 mg BID doses), the “serum C4 increase” value is “largest increase”. Besides, the “serum autotaxin concentration compared with placebo” value in data set [1] (40 mg BID, Week 16) is “significantly decreased”. For the same compound, the “C4 LS mean ratio increases from baseline (MMRM)” value in data set [1] (180 mg QD and both BID treatment groups) was “largest increases”. The “LDL cholesterol compared to the placebo group” value in data set [1] (Week 16, all linerixibat treatment groups with the exception of 20 mg QD) was “significantly reduced”. In data set [1] (two BID doses of 40 mg and 90 mg), the “fibroblast growth factor-19 (FGF-19) reduction” value is “greatest reduction”. Moreover, the “total serum bile acids (TSBA) compared with baseline (MMRM)” value in data set [1] (week 16, 40 mg and 90 mg BID) is “statistically significant decrease”. For the same compound, the “pruritus severity compared to placebo (NRS, 5D Itch Scale and PBC-40)” value in data set [2] (90 mg BID, 22 subjects with PBC pruritus) is recorded as “statistically significant decrease”. In data set [2] (90 mg BID, 14 day crossover), the “reduction in itch intensity as compared to placebo” value was 71%. Further, in data set [2] (90 mg BID, 95% CI: −0.94 to −0.24), the “itch intensity, PBC-40 itch domain, compared to placebo” value is −0.59. Besides, the “itch intensity, 5-D itch, compared to placebo” value in data set [2] (90 mg BID, 95% CI: −6.60 to −2.49) is −4.55. In addition, the “itch intensity as measured by NRS, compared to placebo” value in data set [2] (90 mg BID, 95%CI: −2.48 to −0.68) was −1.58. In data set [2] (human, in vivo), the “fatigue, sleep disturbance and overall disability compared to placebo” value is “Decreases”; the “time at which reduction of pruritus severity occurred” value is “within the first week”. In addition, the tolerability entry in data set [2] (two weeks of oral twice daily 90 mg) was “well tolerated”.
